Results on one compound are retold here after PubChem BioAssay (NCI).

SMILES strings stand for the structures.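 In this assay, cells in 96-well plates receive the compound at five concentrations for 48 hours. Endpoints are linearly interpolated between the surrounding concentrations. GI50 is the concentration that inhibits growth by half. The concentration for full growth arrest is given as TGI.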

Test systems include BT-549 breast; CAKI-1 renal; CCRF-CEM leukemia; HCT-116 colon; HOP-92 NSCLC; LOX IMVI melanoma; M14 melanoma; SR leukemia; T-47D breast; TK-10 renal.
Common to all, as to assay: inhibition of tumour cell growth, NCI panel, 48 h

As for `Cc1ccc(Oc2nc3ccccc3cc2-c2nnc(Cn3c(COc4ccccc4)nc4ccccc43)o2)cc1`, the GI50 in the test with BT-549 breast was 1770 nM; with CAKI-1 renal, 2290 nM; in the test on CCRF-CEM leukemia it was 414 nM; in the test on HCT-116 colon, 431 nM; with HOP-92 NSCLC, 1270 nM; with LOX IMVI melanoma, 1590 nM. Also, the GI50 was 2330 nM with M14 melanoma, 734 nM in the test with SR leukemia, 2610 nM in the test on T-47D breast and 3.91 µM in the test with TK-10 renal. Further, the TGI stood at 4.06 µM in the test on BT-549 breast; 14.9 µM in the test on CAKI-1 renal; 3.74 µM with CCRF-CEM leukemia; 1640 nM in the test on HCT-116 colon; 5.37 µM in the test with HOP-92 NSCLC; 4.32 µM in the test on LOX IMVI melanoma. Moreover, the TGI in the test on M14 melanoma was found to be 7.4 µM; with SR leukemia, 8.53 µM; with T-47D breast it was 14.6 µM; in the test with TK-10 renal, 9.92 µM.
